Measured values taken from patent publication US8940768B2, “Antifungal triazole derivatives” (Daewoong Pharmaceutical Co., Ltd., priority 2010, dated 2015).
In brackets after ≈: the same amount, converted by molar mass.

Legend:
Assay type in all cases: cell-based
[1] = system: Candida albicans; assay: in vitro antifungal activity (MIC80), Candida albicans; conditions: 80% growth inhibition vs negative control, RPMI 1640, read 24 hrs after application, Table 1, read-out: Antifungal Activity (MIC80) C. albicans
Experimental: (§1) The compounds of the present invention were evaluated for inhibitory activity against yeast molds including Candida albicans, Candida glabrata, Candida krusei, Candida tropicalis, Candida parapsilosis, and Cryptococcus neoformans, and filamentous fungi including Aspergillus fumigatus, Trichophyton mentagrophytes (obtained from KCTC (Korean Collection for Type Cultures), and Trichophyton rubrum (obtained from KCCM (Korean Culture Center of Microorganisms). All the strains, but Trichophyton mentagrophytes and Trichophyton rubrum, were purchased from the ATCC (American Type Culture Collection).
(§2) Of the strains used in this test, Candida albicans, Candida glabrata, Candida krusei, Candida tropicalis, Candida parapsilosis, Trichophyton mentagrophytes and Trichophyton rubrum were inoculated into sabouraud dextrose agars (Difco, BD-0109), Cryptococcus neoformans into a yeast mold agar (YM agar, Difco, 271210), and Aspergillus fumigatus into a malt extract agar (Difco, 211220), before incubation at 35° C. for two to ten days.
(§3) From the agars on which the yeast molds were grown, single colonies were picked up, and each was sufficiently suspended in 5 mL of already prepared, 0.85% sterile saline. After correction of the absorbance to 0.108 at 530 nm, each of the suspensions was diluted to a ratio of 1:50 in an RPMI (Roswell park memorial institute) 1640 medium and then to a ratio of 1:20 to prepare an inoculum having a cell density of from 1.0×10^3 to 5.0×10^3CFU/mL. The cell density was adjusted into […]˜5.0×10^4 CFU/mL for Aspergillus fumigates and 0.4×10^4˜5.0×10^4 CFU/mL for both Trichophyton mentagrophytes and Trichophyton rubrum.
(§4) The antifungal agent samples were prepared by diluting the active compounds in an RPMI 1640 medium to a serial density of from 0.0156 to 32 μg/mL. In this context, dimethylsulfoxide (DMSO) was used as an excipient at a final concentration of 1% (v/v). The serial dilutions were aliquoted at a volume of 0.1 mL and applied to 0.1 mL of the aliquots of each inoculum, followed by incubation.
(§5) With the naked eyes, an observation was made of all of the yeast molds, but Cryptococcus neoformans 24 hrs after the application, Cryptococcus neoformans and Aspergillus fumigatus 48 hrs after the application, and Trichophyton mentagrophytes and Trichophyton rubrum five days after the application to examine whether the fungi grew or not. In addition, Alamarblue™ as used to determine the concentrations of the compounds of the present invention at which the growth of the microorganisms was 80% inhibited compared to that of the negative control. All experiments were performed in duplicate for each of the test concentration groups.

[2] = system: Candida glabrata; assay: in vitro antifungal activity (MIC80), Candida glabrata; conditions: Nakaseomyces glabratus, 24 h, read-out: Antifungal Activity (MIC80) C. grabrata
Experimental: as §1, §2, §3, §4, §5

[3] = system: Candida krusei; assay: in vitro antifungal activity (MIC80), Candida krusei; conditions: Pichia kudriavzevii; 80% growth inhibition vs negative control; RPMI 1640; read 24 hrs after application; read-out: Antifungal Activity (MIC80) C. krusei
Experimental: as §1, §2, §3, §4, §5

[4] = system: Candida tropicalis; assay: in vitro antifungal activity (MIC80), Candida tropicalis; conditions: 80% growth inhibition vs negative control, RPMI 1640, read 24 hrs after application, read-out: Antifungal Activity (MIC80) C. tropicalis
Experimental: as §1, §2, §3, §4, §5

[5] = system: Candida parapsilosis; assay: in vitro antifungal activity (MIC80), Candida parapsilosis; conditions: Lodderomyces parapsilosis; 80% growth inhibition vs negative control; RPMI 1640; read 24 hrs after application; read-out: Antifungal Activity (MIC80) C. parapsilosis
Experimental: as §1, §2, §3, §4, §5

[6] = system: Cryptococcus neoformans; assay: in vitro antifungal activity (MIC80), Cryptococcus neoformans; conditions: 80% growth inhibition vs negative control, RPMI 1640, read 48 hrs after application
Experimental: as §1, §2, §3, §4, §5

[7] = system: Aspergillus fumigatus; assay: in vitro antifungal activity (MIC80), Aspergillus fumigatus; conditions: 80% growth inhibition vs negative control, RPMI 1640, read 48 hrs after application
Experimental: as §1, §2, §3, §4, §5

[8] = system: Trichophyton mentagrophytes; assay: in vitro antifungal activity (MIC80), Trichophyton mentagrophytes; conditions: 120 h, 80% growth inhibition vs negative control, RPMI 1640, read five days after application
Experimental: as §1, §2, §3, §4, §5

[9] = system: Trichophyton rubrum; assay: in vitro antifungal activity (MIC80), Trichophyton rubrum; conditions: 120 h, 80% growth inhibition vs negative control, RPMI 1640, read five days after application
Experimental: as §1, §2, §3, §4, §5

Compound | MIC80 [1] [µg/mL] | MIC80 [2] [µg/mL] | MIC80 [3] [µg/mL] | MIC80 [4] [µg/mL] | MIC80 [5] [µg/mL] | MIC80 [6] [µg/mL] | MIC80 [7] [µg/mL] | MIC80 [8] [µg/mL] | MIC80 [9] [µg/mL]
C[C@@H](N1CCC(Oc2ccc(F)cc2)CC1)[C@](O)(Cn1cncn1)c1ccc(F)cc1F [Example 1, (2R,3R)-2-(2,4-difluorophenyl)-3-(4-(4-fluorophenoxy)piperidin-1-yl)-1-(1H-1,2,4-triazol-1-yl)butan-2-ol] | ≤ 0.015 | 0.25 (≈ 0.56 µM) | 0.062 (≈ 0.139 µM) | 0.062 (≈ 0.139 µM) | ≤ 0.015 | ≤ 0.015 | ≤ 0.125 | ≤ 0.125 | ≤ 0.125
C[C@@H](N1CCC(Oc2ncccn2)CC1)[C@](O)(Cn1cncn1)c1ccc(F)cc1F [Example 29, (2R,3R)-2-(2,4-difluorophenyl)-3-(4-(pyrimidin-2-yloxy)piperidin-1-yl)-1-(1H-1,2,4-triazol-1-yl)butan-2-ol] | ≤ 0.015 | 1 (≈ 2.32 µM) | 0.5 (≈ 1.16 µM) | 0.25 (≈ 0.581 µM) | 0.062 (≈ 0.144 µM) | ≤ 0.015 | 1 (≈ 2.32 µM) | 0.062 (≈ 0.144 µM) | ≤ 0.125
C[C@@H](N1CCC(Oc2ncc(Br)cn2)CC1)[C@](O)(Cn1cncn1)c1ccc(F)cc1F [Example 32, (2R,3R)-3-(4-((5-bromopyrimidin-2-yl)oxy)piperidin-1-yl)-2-(2,4-difluorophenyl)-1-(1H-1,2,4-triazol-1-yl)butan-2-ol] | ≤ 0.015 | 0.125 (≈ 0.245 µM) | 0.125 (≈ 0.245 µM) | ≤ 0.015 | ≤ 0.015 | ≤ 0.015 | ≤ 0.125 | ≤ 0.125 | 0.031 (≈ 0.0609 µM)
C[C@@H](N1CCC(Nc2ccc(Cl)cc2)CC1)[C@](O)(Cn1cncn1)c1ccc(F)cc1F [Example 34, (2R,3R)-3-(4-((4-chlorophenyl)amino)piperidin-1-yl)-2-(2,4-difluorophenyl)-1-(1H-1,2,4-triazol-1-yl)butan-2-ol] | ≤ 0.015 | 0.125 (≈ 0.271 µM) | 0.031 (≈ 0.0671 µM) | ≤ 0.015 | ≤ 0.015 | ≤ 0.015 | ≤ 0.125 | ≤ 0.125 | ≤ 0.125
C[C@@H](N1CCC(Nc2ccc(F)cn2)CC1)[C@](O)(Cn1cncn1)c1ccc(F)cc1F [Example 58, (2R,3R)-2-(2,4-difluorophenyl)-3-(4-((5-fluoropyridin-2-yl)amino)piperidin-1-yl)-1-(1H-1,2,4-triazol-1-yl)butan-2-ol] | ≤ 0.015 | 1 (≈ 2.24 µM) | 0.062 (≈ 0.139 µM) | 0.125 (≈ 0.28 µM) | 0.062 (≈ 0.139 µM) |  | 0.125 (≈ 0.28 µM) | ≤ 0.125 | ≤ 0.125
C[C@@H](N1CCC(Nc2ccc(Cl)cn2)CC1)[C@](O)(Cn1cncn1)c1ccc(F)cc1F [Example 59, (2R,3R)-3-(4-((5-chloropyridin-2-yl)-amino)piperidin-1-yl)-2-(2,4-difluorophenyl)-1-(1H-1,2,4-triazol-1-yl)butan-2-ol] | ≤ 0.015 | 0.25 (≈ 0.54 µM) | 0.062 (≈ 0.134 µM) | 0.125 (≈ 0.27 µM) | ≤ 0.015 | ≤ 0.015 | 0.25 (≈ 0.54 µM) | ≤ 0.125 | ≤ 0.125
C[C@@H](NC1CCN(c2ccc(F)cc2)CC1)[C@](O)(Cn1cncn1)c1ccc(F)cc1F [Example 125, (2R,3R)-2-(2,4-difluorophenyl)-3-((1-(4-fluorophenyl)piperidin-4-yl)amino)-1-(1H-1,2,4-triazol-1-yl)butan-2-ol] | ≤ 0.015 | 0.125 (≈ 0.281 µM) | 0.062 (≈ 0.139 µM) | 0.031 (≈ 0.0696 µM) | ≤ 0.015 | ≤ 0.015 | 0.25 (≈ 0.561 µM) | ≤ 0.125 | ≤ 0.125
C[C@@H](NC1CCN(c2ccc(Cl)cc2)CC1)[C@](O)(Cn1cncn1)c1ccc(F)cc1F [Example 128, (2R,3R)-3-((1-(4-chlorophenyl)piperidin-4-yl)amino)-2-(2,4-difluorophenyl)-1-(1H-1,2,4-triazol-1-yl)butan-2-ol] | ≤ 0.015 | 0.062 (≈ 0.134 µM) | ≤ 0.015 | 0.031 (≈ 0.0671 µM) | 0.031 (≈ 0.0671 µM) | ≤ 0.015 | 0.25 (≈ 0.541 µM) | 0.015 (≈ 0.0325 µM) | ≤ 0.125
C[C@@H](NC1CCN(c2ncc(F)cn2)CC1)[C@](O)(Cn1cncn1)c1ccc(F)cc1F [Example 151, (2R,3R)-2-(2,4-difluorophenyl)-3-((1-(5-fluoropyrimidin-2-yl)piperidin-4-yl)-amino)-1-(1H-1,2,4-triazol-1-yl)butan-2-ol] | ≤ 0.015 | 1 (≈ 2.23 µM) | 0.25 (≈ 0.559 µM) | 0.25 (≈ 0.559 µM) | 0.125 (≈ 0.279 µM) |  | 1 (≈ 2.23 µM) | ≤ 0.004 | 0.015 (≈ 0.0335 µM)
C[C@@H](NC1CCN(c2ncc(Br)cn2)CC1)[C@](O)(Cn1cncn1)c1ccc(F)cc1F [Example 153, (2R,3R)-3-((1-(5-bromopyrimidin-2-yl)piperidin-4-yl)amino)-2-(2,4-difluorophenyl)-1-(1H-1,2,4-triazol-1-yl)butan-2-ol] | ≤ 0.015 | 0.125 (≈ 0.246 µM) | 0.125 (≈ 0.246 µM) | 0.25 (≈ 0.492 µM) | ≤ 0.015 | ≤ 0.015 | 1 (≈ 1.97 µM) | 0.5 (≈ 0.984 µM) | ≤ 0.125
OC(Cn1cncn1)(Cn1cncn1)c1ccc(F)cc1F [Fluconazole, reference compound] | 4 (≈ 13.1 µM) | > 32 | 4 (≈ 13.1 µM) | > 32 | > 32 | 0.5 (≈ 1.63 µM) | > 128 | 16 (≈ 52.2 µM) | 4 (≈ 13.1 µM)
C[C@@H](c1ncncc1F)[C@](O)(Cn1cncn1)c1ccc(F)cc1F [Voriconazole, reference compound] | 0.031 (≈ 0.0887 µM) | 2 (≈ 5.73 µM) | 0.5 (≈ 1.43 µM) | 0.25 (≈ 0.716 µM) | 0.5 (≈ 1.43 µM) | 0.25 (≈ 0.716 µM) | 0.25 (≈ 0.716 µM) | 0.125 (≈ 0.358 µM) | ≤ 0.125
